From ChEMBL document CHEMBL1795320, “Synthesis and antibacterial activity of novel 4″-O-benzimidazolyl clarithromycin derivatives” (2011)
≈ marks a conversion by molar mass, not a printed value.

Tests used:
Type in all cases: functional
Streptococcus pneumoniae [1] = test: Antibacterial activity against erythromycin-susceptible Streptococcus pneumoniae ATCC 49619 by broth microdilution method
Streptococcus pneumoniae [2] = test: Antibacterial activity against erythromycin-resistant Streptococcus pneumoniae B1 expressing erm gene by broth microdilution method
Streptococcus pneumoniae [3] = test: Antibacterial activity against erythromycin-resistant Streptococcus pneumoniae A22072 expressing mef gene by broth microdilution method
Streptococcus pneumoniae [4] = test: Antibacterial activity against erythromycin-resistant Streptococcus pneumoniae AB11 expressing erm and mef gene by broth microdilution method
Staphylococcus aureus = test: Antibacterial activity against erythromycin-susceptible Staphylococcus aureus ATCC 25923 by broth microdilution method
Streptococcus pneumoniae [5] = test: Ratio of clarithromycin MIC to compound MIC for erythromycin-resistant Streptococcus pneumoniae A22072 expressing mef gene
Streptococcus pneumoniae [6] = test: Ratio of erythromycin MIC to compound MIC for erythromycin-resistant Streptococcus pneumoniae A22072 expressing mef gene
Streptococcus pneumoniae [7] = test: Ratio of clarithromycin MIC to compound MIC for erythromycin-resistant Streptococcus pneumoniae B1 expressing erm gene
Streptococcus pneumoniae [8] = test: Ratio of azithromycin MIC to compound MIC for erythromycin-resistant Streptococcus pneumoniae B1 expressing erm gene
Streptococcus pneumoniae [9] = test: Ratio of erythromycin MIC to compound MIC for erythromycin-resistant Streptococcus pneumoniae B1 expressing erm gene

CC[C@H]1OC(=O)[C@H](C)[C@@H](O[C@H]2C[C@@](C)(OC)[C@@H](OC(=O)NNC(=O)c3ccc4[nH]c(-c5ccccc5)nc4c3)[C@H](C)O2)[C@H](C)[C@@H](O[C@@H]2O[C@H](C)C[C@H](N(C)C)[C@H]2O)[C@](C)(OC)C[C@@H](C)C(=O)[C@H](C)[C@@H](O)[C@]1(C)O
MIC (Streptococcus pneumoniae [1]): 0.03 µg/mL (≈ 0.0292 µM) | MIC (Streptococcus pneumoniae [2]): 8 µg/mL (≈ 7.8 µM) | MIC (Streptococcus pneumoniae [3]): 0.03 µg/mL (≈ 0.0292 µM) | MIC (Streptococcus pneumoniae [4]): 16 µg/mL (≈ 15.6 µM) | MIC (Staphylococcus aureus): 0.25 µg/mL (≈ 0.244 µM) | Ratio (Streptococcus pneumoniae [5]): 133 | Ratio (Streptococcus pneumoniae [6]): 267

CC[C@H]1OC(=O)[C@H](C)[C@@H](O[C@H]2C[C@@](C)(OC)[C@@H](OC(=O)NNC(=O)c3ccc4[nH]c(-c5ccc(C)cc5)nc4c3)[C@H](C)O2)[C@H](C)[C@@H](O[C@@H]2O[C@H](C)C[C@H](N(C)C)[C@H]2O)[C@](C)(OC)C[C@@H](C)C(=O)[C@H](C)[C@@H](O)[C@]1(C)O
MIC (Streptococcus pneumoniae [1]): 0.12 µg/mL (≈ 0.115 µM) | MIC (Streptococcus pneumoniae [2]): 2 µg/mL (≈ 1.92 µM) | MIC (Streptococcus pneumoniae [3]): 0.03 µg/mL (≈ 0.0288 µM) | MIC (Streptococcus pneumoniae [4]): 16 µg/mL (≈ 15.4 µM) | MIC (Staphylococcus aureus): 0.25 µg/mL (≈ 0.24 µM) | Ratio (Streptococcus pneumoniae [5]): 133 | Ratio (Streptococcus pneumoniae [6]): 267 | Ratio (Streptococcus pneumoniae [7]): 64 | Ratio (Streptococcus pneumoniae [8]): 64 | Ratio (Streptococcus pneumoniae [9]): 64

CC[C@H]1OC(=O)[C@H](C)[C@@H](O[C@H]2C[C@@](C)(OC)[C@@H](OC(=O)NNC(=O)c3ccc4[nH]c(-c5cccc(OC)c5)nc4c3)[C@H](C)O2)[C@H](C)[C@@H](O[C@@H]2O[C@H](C)C[C@H](N(C)C)[C@H]2O)[C@](C)(OC)C[C@@H](C)C(=O)[C@H](C)[C@@H](O)[C@]1(C)O
MIC (Streptococcus pneumoniae [1]): 0.03 µg/mL (≈ 0.0284 µM) | MIC (Streptococcus pneumoniae [2]): 16 µg/mL (≈ 15.1 µM) | MIC (Streptococcus pneumoniae [3]): 0.03 µg/mL (≈ 0.0284 µM) | MIC (Streptococcus pneumoniae [4]): 32 µg/mL (≈ 30.3 µM) | MIC (Staphylococcus aureus): 0.12 µg/mL (≈ 0.114 µM) | Ratio (Streptococcus pneumoniae [5]): 133 | Ratio (Streptococcus pneumoniae [6]): 267

CC[C@H]1OC(=O)[C@H](C)[C@@H](O[C@H]2C[C@@](C)(OC)[C@@H](OC(=O)NNC(=O)c3ccc4[nH]c(-c5ccc(OC)cc5)nc4c3)[C@H](C)O2)[C@H](C)[C@@H](O[C@@H]2O[C@H](C)C[C@H](N(C)C)[C@H]2O)[C@](C)(OC)C[C@@H](C)C(=O)[C@H](C)[C@@H](O)[C@]1(C)O
MIC (Streptococcus pneumoniae [1]): 0.12 µg/mL (≈ 0.114 µM) | MIC (Streptococcus pneumoniae [2]): 4 µg/mL (≈ 3.79 µM) | MIC (Streptococcus pneumoniae [3]): 0.03 µg/mL (≈ 0.0284 µM) | MIC (Streptococcus pneumoniae [4]): 16 µg/mL (≈ 15.1 µM) | MIC (Staphylococcus aureus): 0.25 µg/mL (≈ 0.237 µM) | Ratio (Streptococcus pneumoniae [5]): 133 | Ratio (Streptococcus pneumoniae [6]): 267

CC[C@H]1OC(=O)[C@H](C)[C@@H](O[C@H]2C[C@@](C)(OC)[C@@H](OC(=O)NNC(=O)c3ccc4[nH]c(-c5ccccc5Cl)nc4c3)[C@H](C)O2)[C@H](C)[C@@H](O[C@@H]2O[C@H](C)C[C@H](N(C)C)[C@H]2O)[C@](C)(OC)C[C@@H](C)C(=O)[C@H](C)[C@@H](O)[C@]1(C)O
MIC (Streptococcus pneumoniae [1]): 0.03 µg/mL (≈ 0.0283 µM) | MIC (Streptococcus pneumoniae [2]): 32 µg/mL (≈ 30.2 µM) | MIC (Streptococcus pneumoniae [3]): 0.03 µg/mL (≈ 0.0283 µM) | MIC (Streptococcus pneumoniae [4]): 32 µg/mL (≈ 30.2 µM) | MIC (Staphylococcus aureus): 0.06 µg/mL (≈ 0.0566 µM) | Ratio (Streptococcus pneumoniae [5]): 133 | Ratio (Streptococcus pneumoniae [6]): 267

CC[C@H]1OC(=O)[C@H](C)[C@@H](O[C@H]2C[C@@](C)(OC)[C@@H](OC(=O)NNC(=O)c3ccc4[nH]c(-c5ccc(Cl)cc5)nc4c3)[C@H](C)O2)[C@H](C)[C@@H](O[C@@H]2O[C@H](C)C[C@H](N(C)C)[C@H]2O)[C@](C)(OC)C[C@@H](C)C(=O)[C@H](C)[C@@H](O)[C@]1(C)O
MIC (Streptococcus pneumoniae [1]): 0.03 µg/mL (≈ 0.0283 µM) | MIC (Streptococcus pneumoniae [2]): 8 µg/mL (≈ 7.54 µM) | MIC (Streptococcus pneumoniae [3]): 0.03 µg/mL (≈ 0.0283 µM) | MIC (Streptococcus pneumoniae [4]): 16 µg/mL (≈ 15.1 µM) | MIC (Staphylococcus aureus): 0.5 µg/mL (≈ 0.471 µM) | Ratio (Streptococcus pneumoniae [5]): 133 | Ratio (Streptococcus pneumoniae [6]): 267

CC[C@H]1OC(=O)[C@H](C)[C@@H](O[C@H]2C[C@@](C)(OC)[C@@H](OC(=O)NNC(=O)c3ccc4[nH]c(-c5cccc(Cl)c5O)nc4c3)[C@H](C)O2)[C@H](C)[C@@H](O[C@@H]2O[C@H](C)C[C@H](N(C)C)[C@H]2O)[C@](C)(OC)C[C@@H](C)C(=O)[C@H](C)[C@@H](O)[C@]1(C)O
MIC (Streptococcus pneumoniae [1]): 0.03 µg/mL (≈ 0.0279 µM) | MIC (Streptococcus pneumoniae [2]): 16 µg/mL (≈ 14.9 µM) | MIC (Streptococcus pneumoniae [3]): 0.25 µg/mL (≈ 0.232 µM) | MIC (Streptococcus pneumoniae [4]): 32 µg/mL (≈ 29.7 µM) | MIC (Staphylococcus aureus): 0.5 µg/mL (≈ 0.464 µM)

CC[C@H]1OC(=O)[C@H](C)[C@@H](O[C@H]2C[C@@](C)(OC)[C@@H](O)[C@H](C)O2)[C@H](C)[C@@H](O[C@@H]2O[C@H](C)C[C@H](N(C)C)[C@H]2O)[C@](C)(O)C[C@@H](C)CN(C)[C@H](C)[C@@H](O)[C@]1(C)O [AZITHROMYCIN]
MIC (Streptococcus pneumoniae [1]): 0.12 µg/mL (≈ 0.16 µM) | MIC (Streptococcus pneumoniae [2]): 128 µg/mL (≈ 171 µM) | MIC (Streptococcus pneumoniae [3]): 4 µg/mL (≈ 5.34 µM) | MIC (Streptococcus pneumoniae [4]): 256 µg/mL (≈ 342 µM) | MIC (Staphylococcus aureus): 0.12 µg/mL (≈ 0.16 µM)

CC[C@H]1OC(=O)[C@H](C)[C@@H](O[C@H]2C[C@@](C)(OC)[C@@H](O)[C@H](C)O2)[C@H](C)[C@@H](O[C@@H]2O[C@H](C)C[C@H](N(C)C)[C@H]2O)[C@](C)(OC)C[C@@H](C)C(=O)[C@H](C)[C@@H](O)[C@]1(C)O [CLARITHROMYCIN]
MIC (Streptococcus pneumoniae [1]): 0.12 µg/mL (≈ 0.16 µM) | MIC (Streptococcus pneumoniae [2]): 128 µg/mL (≈ 171 µM) | MIC (Streptococcus pneumoniae [3]): 4 µg/mL (≈ 5.35 µM) | MIC (Streptococcus pneumoniae [4]): 128 µg/mL (≈ 171 µM) | MIC (Staphylococcus aureus): 0.12 µg/mL (≈ 0.16 µM)

CC[C@H]1OC(=O)[C@H](C)[C@@H](O[C@H]2C[C@@](C)(OC)[C@@H](O)[C@H](C)O2)[C@H](C)[C@@H](O[C@@H]2O[C@H](C)C[C@H](N(C)C)[C@H]2O)[C@](C)(O)C[C@@H](C)C(=O)[C@H](C)[C@@H](O)[C@]1(C)O [ERYTHROMYCIN]
MIC (Streptococcus pneumoniae [1]): 0.12 µg/mL (≈ 0.164 µM) | MIC (Streptococcus pneumoniae [2]): 128 µg/mL (≈ 174 µM) | MIC (Streptococcus pneumoniae [3]): 8 µg/mL (≈ 10.9 µM) | MIC (Streptococcus pneumoniae [4]): 256 µg/mL (≈ 349 µM) | MIC (Staphylococcus aureus): 0.12 µg/mL (≈ 0.164 µM)
